Test results taken from PMC9255384 (Journal of medicinal chemistry, 2021).

System: Caco-2
Assay: Monolayer Caco-2 permeability experiment
Type: in vitro ADME

| cellular permeability (Caco-2) | SMILES |
| --- | --- |
| limited cellular permeability | CSc1nc(-c2cccc(NC(=O)c3c(F)ccc(O)c3CN3C(=O)c4ccccc4C3=O)c2)c(-c2ccnc(NC(C)=O)c2)[nH]1 [Compound 2c, N-(3-(5-(2-acetamidopyridin-4-yl)-2-(methylthio)-1H-imidazol-4-yl)phenyl)-2-((1,3-dioxoisoindolin-2-yl)methyl)-6-fluoro-3-hydroxybenzamide] |
| limited cellular permeability | C=CC(=O)Nc1ccc(OC)c(Nc2cc(-c3[nH]c(SC)nc3-c3cccc(NC(=O)c4c(F)ccc(O)c4CN4C(=O)c5ccccc5C4=O)c3)ccn2)c1 [Compound 1, N-(3-(5-(2-((5-acrylamido-2-methoxyphenyl)amino)pyridin-4-yl)-2-(methylthio)-1H-imidazol-4-yl)phenyl)-2-((1,3-dioxoisoindolin-2-yl)methyl)-6-fluoro-3-hydroxybenzamide] |
